Experimental data reported in PMC9127571 (eBioMedicine, 2022).
Converted amounts (≈) assume the structure as drawn. “Also recorded” adds a separate entry of the source.

Key:
[1] = Phase 1a safety and tolerability: adverse events, ECG, laboratory tests; format: in vivo, human
[2] = Beagle dog oral toxicology, safety pharmacology and toxicokinetics; format: in vivo; conditions: high doses
[3] = tested on: P. falciparum; conditions: cited from earlier work
[4] = Phase 1a plasma pharmacokinetics of SJ733 and metabolite SJ506; format: in vivo, human
[5] = Cobicistat plasma pharmacokinetics; format: in vivo, human; conditions: 150 mg, all individuals
[6] = MAD and cobicistat-boosted SAD cohorts

Row | Structure (SMILES) | relatedness of all AEs to SJ733 or cobicistat [1, 6] | serious adverse events [1, 6] | post-dose QTc above 500 ms ([1]; human, in vivo, oral) | baseline versus post-dose QTc interval change above 60 ms ([1]; instance: Day 3, 1·5 h post 300 mg, unboosted) | methemoglobinemia [2] | estimated minimum inhibitory concentration (MIC) [3] [µg/mL] | minimum inhibitory concentration (MIC) [3] [µg/mL] | individuals with time above MIC >96 h ([4]; 300 mg daily for 3 days) [%] | individuals with time above MIC >96 h ([4]; 600 mg daily for 3 days) [%] | decrease in median post-hoc apparent clearance ([4]; SAD cohorts without vs with cobicistat) [%] | AUC(0-inf) ([4]; human, plasma, oral) [µg·h/mL] | Cmax ([4]; human, plasma, oral, maximal Cmax, unboosted SAD and MAD cohorts) [ng/mL] | time by which levels were below LLOQ (10 ng/mL) [5] [h]
1 | N#Cc1cc(NC(=O)[C@H]2c3ccccc3C(=O)N(CC(F)(F)F)[C@@H]2c2cccnc2)ccc1F [SJ733] | unlikely related or unrelated | no serious adverse events; also recorded: no serious AEs | no post-dose QTc interval change above 500 ms | one instance | Dose-dependent, reversible methemoglobinemia | 0.15 | 0.15 (≈ 0.32 µM) | 0 | 50 | 72 | 104 | 2180 | 
2 | CC(C)c1nc(CN(C)C(=O)N[C@@H](CCN2CCOCC2)C(=O)N[C@H](CC[C@H](Cc2ccccc2)NC(=O)OCc2cncs2)Cc2ccccc2)cs1 [cobicistat] |  |  |  |  |  |  |  |  |  |  |  |  | ≤ 48
